According to US7154028B2, “Gibberellin 2-oxidase gene, functions and uses thereof” (National Agriculture and Bio-Oriented Research Organization, priority 2002, dated 2006):
One block for each molecule: values may come before it.

Legend:
[1] = molecular target: T1, OsGA2ox3 (Oryza sativa subsp. japonica, UniProt Q8S0S6); assay: Enzyme assay with recombinant OsGA2ox3 (E. coli lysate), products identified by GC-MS; type: biochemical; conditions: labeled substrate incubated with recombinant OsGA2ox3, full scan GC-MS
T1 construct: general method only; made in house; host or cells: E. coli
From the text: A cell lysate obtained from E. coli heterologously expressing OsGA2ox3 cDNA was used for enzyme assay as previously described (Sakamoto, T. et al., Plant Physiol., 125(3): 1508–16, (2001)). […] However, GA20 was metabolized to a GA29-catabolite. Furthermore, the metabolism of GA29 to a GA29-catabolite was confirmed by metabolism experiments.

[2] = tested on: OsGA2ox1; conditions: cited from earlier work
[3] = tested on: OsGA2ox3; assay: RNA gel blot of OsGA2ox3 transcription in treated rice seedlings; type: in vivo, Oryza sativa; conditions: for transcription level of the OsGA2ox3 gene: FIG. 6B; for Transcription level of OsGA2ox3: wild-type rice seedlings, 10 μM, three days, FIG. 6A
Procedure: (§1) Seeds of wild-type rice (Oryza sativa L., i.e. Nipponbare) were sterilized in 1% NaClO for one hour, and seeded on agar medium. Seedlings were grown in a growth chamber under continuous light at 30° C. To investigate the influence of GA3 and uniconazole on GA-oxidase expression, wild-type rice seedlings were transferred to a hydroponic culture system containing 10 μM GA3 or 10 μM uniconazole, and allowed to grow for three days. Ten-micrograms of RNAs were prepared from each sample, and gel blot analysis was performed as previously described (Sakamoto, T. et al., Plant Physiol., 125(3): 1508–16, 2001). The influence of uniconazole, a suppressor of GA3 and GA biosyntheses, on the transcriptional level of OsGA2ox2 and OsGA2ox3 (FIG. 6A) was examined. Transcription level of OsGA2ox3 was increased by GA3 treatment, but decreased by uniconazole (FIG. 6A) treatment. […] Transcription of the […] gene was not detected even after GA3 treatment.

[4] = tested on: OsGA20ox1; assay: RNA gel blot of GA20-oxidase gene transcription in treated rice seedlings; type: in vivo, Oryza sativa; conditions: wild-type rice seedlings, 10 μM, three days, relative to the effect on OsGA2ox3
Procedure: as §1

[5] = tested on: AtGA2ox1; conditions: GA-deficient mutants, after treatment with GA3; cited from earlier work
[6] = tested on: AtGA2ox2; conditions: GA-deficient mutants, after treatment with GA3; cited from earlier work
[7] = tested on: OsGA2ox1; conditions: GA3-treatment; cited from earlier work
[8] = tested on: wild type rice; assay: Overexpression of OsGA2ox3 cDNA in transgenic rice; type: in vivo, Oryza sativa
Procedure: As previously described (Sakamoto, T. et al., Plant Physiol., 125(3): 1508–16, 2001), the full-length OsGA2ox3 cDNA was inserted between the rice actin promoter and the polyadenylation signal of nopaline synthase (NOS) present in a hygromycin resistant binary vector pAct-Hm2. This construct was introduced into Agrobacterium tumefaciens EHA101. Agrobacterium-mediated transformation was conducted as described in the literature (WO 01/06844 A1). Transgenic plants were selected on a medium containing 50 mg/L hygromycin.
To test the activity of the OsGA2ox3 gene product in vivo, the full-length OsGA2ox3 cDNA was fused to the rice actin promoter and introduced into wild type rice by Agrobacterium-mediated gene transfer. […] Leaf blades of these plants were dark green, and they were shorter and wider than those of the wild type plants. All of these phenotypes are typical for GA-deficient dwarf rice plants.

T1 sequence (Q8S0S6 whole entry): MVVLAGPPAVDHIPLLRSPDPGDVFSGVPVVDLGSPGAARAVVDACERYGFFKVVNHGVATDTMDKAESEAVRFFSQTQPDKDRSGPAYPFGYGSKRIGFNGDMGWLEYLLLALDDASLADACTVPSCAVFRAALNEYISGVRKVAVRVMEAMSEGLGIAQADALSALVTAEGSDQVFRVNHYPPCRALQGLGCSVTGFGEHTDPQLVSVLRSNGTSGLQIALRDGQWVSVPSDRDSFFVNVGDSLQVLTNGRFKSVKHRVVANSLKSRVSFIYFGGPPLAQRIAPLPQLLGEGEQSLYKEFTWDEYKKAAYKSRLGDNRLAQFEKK

Product [1]: GA8
Product ([1]; listed as [^2H2]GA1): [^2H2]GA8
Molecule: C=C1C[C@]23C[C@@]1(O)CC[C@H]2[C@@]12CC[C@H](O)[C@@](C)(C(=O)O1)[C@H]2[C@@H]3C(=O)O [GA1]
product of metabolism by OsGA2ox1 gene product [2]: GA8

Product [1]: GA29-catabolite
Product ([1]; listed as [^2H2]GA20): [^2H2]GA29-catabolite
Molecule: C=C1C[C@]23C[C@@]1(O)CC[C@H]2[C@@]12CCC[C@@](C)(C(=O)O1)[C@H]2[C@@H]3C(=O)O [GA20, gibberellin A20]
product of metabolism by OsGA2ox1 gene product [2]: GA29

Product [1]: GA29-catabolite
Product ([1]; listed as [^2H2]GA29): [^2H2]GA29-catabolite
Molecule: C=C1C[C@]23C[C@@]1(O)CC[C@H]2[C@@]12C[C@H](O)C[C@@](C)(C(=O)O1)[C@H]2[C@@H]3C(=O)O [GA29, gibberellin A29]

The next lines start with the molecule.

Molecule: C=C1C[C@]23C[C@@]1(O)CC[C@H]2[C@@]12C=C[C@H](O)[C@@](C)(C(=O)O1)[C@H]2[C@@H]3C(=O)O [GA3]
Transcription of the OsGA2ox3 gene ([3]; after GA3 treatment, detection): not detected
transcription level of the OsGA2ox3 gene ([3]; one hour after GA3 treatment): increased
transcription level of the OsGA2ox3 gene ([3]; six hours after GA3 treatment): decreased to a level that was even lower than the transcription level observed before GA3 treatment
Transcription level of OsGA2ox3 [3]: increased
transcriptional level of the OsGA20ox1 gene [4]: completely reversed
transcription levels of AtGA2ox1 [5]: increased
transcription levels of AtGA2ox2 [6]: increased
transcription level of OsGA2ox1 [7]: not affected

Molecule: CC(C)(C)C(O)/C(=C\c1ccc(Cl)cc1)n1cncn1 (centres unmarked) [uniconazole]
Transcription level of OsGA2ox3 [3]: decreased
transcriptional level of the OsGA20ox1 gene [4]: completely reversed

B1: OsGA2ox3 cDNA: full-length rice GA2-oxidase cDNA (SEQ ID NO: 3) fused to the rice actin promoter, introduced into rice (nucleic acid, listed as Oryza sativa)
DNA: ATGGTGGTTCTCGCTGGCCCGCCCGCCGTCGATCACATCCCGCTGCTGAGGTCGCCGGACCCCGGCGACGTCTTCTCCGGCGTGCCGGTCGTCGACCTCGGCAGCCCCGGCGCGGCGAGGGCCGTGGTGGACGCCTGCGAGCGGTACGGGTTCTTCAAGGTCGTCAACCACGGCGTGGCCACGGACACGATGGACAAGGCCGAGTCGGAGGCCGTCAGGTTCTTCTCCCAGACGCAGCCCGACAAGGACCGCTCCGGCCCGGCCTACCCGTTCGGGTACGGCAGCAAGCGGATCGGGTTCAATGGCGACATGGGGTGGCTCGAGTACCTCCTCCTCGCCCTCGACGACGCGTCGCTCGCCGACGCCTGCACCGTCCCGTCCTGCGCGGTCTTCCGGGCCGCTCTGAACGAGTACATCTCGGGGGTGCGGAAGGTGGCGGTGCGGGTGATGGAGGCGATGTCGGAGGGGCTGGGCATTGCGCAGGCGGACGCGCTGAGCGCGCTGGTGACGGCGGAAGGGAGCGACCAGGTGTTCCGCGTGAACCACTACCCGCCGTGCCGCGCGCTGCAGGGGCTCGGCTGCAGCGTCACCGGCTTCGGCGAGCACACCGACCCGCAGCTCGTCTCCGTGCTCCGCTCAAACGGCACGTCCGGCCTGCAGATCGCGCTCCGCGACGGCCAGTGGGTGTCCGTGCCCTCCGACCGCGACTCCTTCTTCGTCAACGTCGGCGACTCGTTGCAGGTTCTGACCAATGGGAGGTTCAAGAGCGTGAAGCACAGGGTGGTGGCCAACAGCCTAAAGTCTAGGGTTTCCTTCATCTACTTTGGAGGGCCACCGTTAGCACAGAGGATTGCACCATTGCCACAGCTGCTGGGGGAGGGAGAGCAGAGCCTGTACAAGGAGTTCACATGGGATGAGTACAAGAAGGCTGCCTACAAATCAAGGCTTGGAGACAACAGGCTGGCCCAGTTTGAGAAGAAGTAG
modifications: rice actin promoter fused, not cited; CDS (1)..(984)
phenotype of transgenic plants ([8]; rice actin promoter, 27 independent lines, FIG. 5): extreme dwarf phenotypes
flowering of transgenic plants ([8]; wild type flowered about three months after seeding): did not flower even after four months
